Source: PubChem BioAssay (NCI)
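Growth conditions: 96-well plates. Treatment: test compound, 48 hours, 5 concentrations. Analysis: linear interpolation between bracketing concentrations; unreached endpoints set to highest concentration. At the GI50, growth is halved. The concentration for full growth arrest is given as TGI.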

Tests used:
Experiment in all cases: growth of human tumour cells (NCI), 48 h
TK-10 renal = system: TK-10 renal
OVCAR-8 ovarian = system: OVCAR-8 ovarian
DU-145 prostate = system: DU-145 prostate
COLO 205 colon = system: COLO 205 colon
UACC-62 melanoma = system: UACC-62 melanoma
ACHN renal = system: ACHN renal
SN12C renal = system: SN12C renal
LOX IMVI melanoma = system: LOX IMVI melanoma
UO-31 renal = system: UO-31 renal
BT-549 breast = system: BT-549 breast
IGROV1 ovarian = system: IGROV1 ovarian
HCT-116 colon = system: HCT-116 colon
HOP-62 NSCLC = system: HOP-62 NSCLC
OVCAR-4 ovarian = system: OVCAR-4 ovarian
KM12 colon = system: KM12 colon
SF-268 CNS = system: SF-268 CNS
M14 melanoma = system: M14 melanoma
MCF7 breast = system: MCF7 breast
HS 578T breast = system: HS 578T breast
OVCAR-3 ovarian = system: OVCAR-3 ovarian
K-562 leukemia = system: K-562 leukemia
HCC-2998 colon = system: HCC-2998 colon
SF-295 CNS = system: SF-295 CNS
MDA-MB-231 breast = system: MDA-MB-231 breast
MDA-MB-435 = system: MDA-MB-435
SK-MEL-28 melanoma = system: SK-MEL-28 melanoma
SK-OV-3 ovarian = system: SK-OV-3 ovarian
PC-3 prostate = system: PC-3 prostate
MALME-3M melanoma = system: MALME-3M melanoma
HOP-92 NSCLC = system: HOP-92 NSCLC
SF-539 CNS = system: SF-539 CNS
NCI-H522 lung = system: NCI-H522 lung
HL-60(TB) leukemia = system: HL-60(TB) leukemia
SR leukemia = system: SR leukemia
MOLT-4 leukemia = system: MOLT-4 leukemia
A498 renal = system: A498 renal
NCI-H460 lung = system: NCI-H460 lung
HCT-15 colon = system: HCT-15 colon
NCI/ADR-RES ovarian = system: NCI/ADR-RES ovarian
EKVX NSCLC = system: EKVX NSCLC
OVCAR-5 ovarian = system: OVCAR-5 ovarian
HT29 colon = system: HT29 colon
SNB-19 CNS = system: SNB-19 CNS
SW-620 colon = system: SW-620 colon
RPMI-8226 leukemia = system: RPMI-8226 leukemia
T-47D breast = system: T-47D breast
UACC-257 melanoma = system: UACC-257 melanoma
RXF 393 renal = system: RXF 393 renal
U251 CNS = system: U251 CNS
CCRF-CEM leukemia = system: CCRF-CEM leukemia
A549 NSCLC = system: A549 NSCLC
SK-MEL-2 melanoma = system: SK-MEL-2 melanoma
786-0 renal = system: 786-0 renal
NCI-H23 lung = system: NCI-H23 lung
CAKI-1 renal = system: CAKI-1 renal
SK-MEL-5 melanoma = system: SK-MEL-5 melanoma
NCI-H226 lung = system: NCI-H226 lung

With `CC(=O)O[C@@H]1CC2C(C)(C)CCCC2(C)C2=C1C(=O)C(C(C)C)=CC2=O` (some centres undefined) the GI50 (TK-10 renal) was 2.51 µM, the TGI (TK-10 renal) was > 100 µM and the GI50 (OVCAR-8 ovarian) was 2.64 µM. The TGI (OVCAR-8 ovarian) was 15.9 µM, the GI50 (DU-145 prostate) was 1.09 µM and the TGI (DU-145 prostate) was 2.48 µM. For the same compound, the GI50 (COLO 205 colon) was 1.88 µM, the TGI (COLO 205 colon) was 4.11 µM and the GI50 (UACC-62 melanoma) was 0.458 µM. It also gave a TGI (UACC-62 melanoma) of 2.07 µM, a GI50 (ACHN renal) of 0.644 µM and a TGI (ACHN renal) of 1.96 µM. The GI50 (SN12C renal) was 1.28 µM, the TGI (SN12C renal) was 4.89 µM and the GI50 (LOX IMVI melanoma) was 1.59 µM. The TGI (LOX IMVI melanoma) was 3.48 µM, the GI50 (UO-31 renal) was 0.519 µM and the TGI (UO-31 renal) was 1.8 µM. The GI50 (BT-549 breast) was 0.621 µM, the TGI (BT-549 breast) was 3.05 µM and the GI50 (IGROV1 ovarian) was 1.49 µM. The TGI (IGROV1 ovarian) was 4.87 µM, the GI50 (HCT-116 colon) was 0.467 µM and the TGI (HCT-116 colon) was 2.8 µM. For the same compound, the GI50 (HOP-62 NSCLC) was 1.77 µM, the TGI (HOP-62 NSCLC) was 4.13 µM and the GI50 (OVCAR-4 ovarian) was 0.838 µM. For the same compound, the TGI (OVCAR-4 ovarian) was 6.58 µM, the GI50 (KM12 colon) was 1.14 µM and the TGI (KM12 colon) was 2.68 µM. It also gave a GI50 (SF-268 CNS) of 1.39 µM, a TGI (SF-268 CNS) of 38.1 µM and a GI50 (M14 melanoma) of 0.46 µM. For the same compound, the TGI (M14 melanoma) was 2.34 µM, the GI50 (MCF7 breast) was 1.05 µM and the TGI (MCF7 breast) was > 100 µM. For the same compound, the GI50 (HS 578T breast) was 1.79 µM, the TGI (HS 578T breast) was > 100 µM and the GI50 (OVCAR-3 ovarian) was 1.51 µM. For the same compound, the TGI (OVCAR-3 ovarian) was 3.36 µM, the GI50 (K-562 leukemia) was 1.69 µM and the TGI (K-562 leukemia) was > 100 µM. For the same compound, the GI50 (HCC-2998 colon) was 0.405 µM, the TGI (HCC-2998 colon) was 1.62 µM and the GI50 (SF-295 CNS) was 1.77 µM. It also gave a TGI (SF-295 CNS) of 3.61 µM, a GI50 (MDA-MB-231 breast) of 0.657 µM and a TGI (MDA-MB-231 breast) of 3.13 µM. The GI50 (MDA-MB-435) was 0.481 µM, the TGI (MDA-MB-435) was 1.93 µM and the GI50 (SK-MEL-28 melanoma) was 0.691 µM. It also gave a TGI (SK-MEL-28 melanoma) of 3.43 µM, a GI50 (SK-OV-3 ovarian) of 3.26 µM and a TGI (SK-OV-3 ovarian) of 8.5 µM. For the same compound, the GI50 (PC-3 prostate) was 2.45 µM, the TGI (PC-3 prostate) was 12.9 µM and the GI50 (MALME-3M melanoma) was 0.784 µM. The TGI (MALME-3M melanoma) was 4.8 µM, the GI50 (HOP-92 NSCLC) was 0.652 µM and the TGI (HOP-92 NSCLC) was 2.1 µM. It also gave a GI50 (SF-539 CNS) of 1.17 µM, a TGI (SF-539 CNS) of 4.05 µM and a GI50 (NCI-H522 lung) of 1.76 µM. It also gave a TGI (NCI-H522 lung) of 3.98 µM, a GI50 (HL-60(TB) leukemia) of 0.744 µM and a TGI (HL-60(TB) leukemia) of 4.28 µM. For the same compound, the GI50 (SR leukemia) was 0.653 µM, the TGI (SR leukemia) was > 100 µM and the GI50 (MOLT-4 leukemia) was 1.13 µM. For the same compound, the TGI (MOLT-4 leukemia) was > 100 µM, the GI50 (A498 renal) was 1.06 µM and the TGI (A498 renal) was 2.35 µM. For the same compound, the GI50 (NCI-H460 lung) was 0.423 µM, the TGI (NCI-H460 lung) was 1.9 µM and the GI50 (HCT-15 colon) was 0.536 µM. The TGI (HCT-15 colon) was 2.49 µM, the GI50 (NCI/ADR-RES ovarian) was 2.96 µM and the TGI (NCI/ADR-RES ovarian) was > 100 µM. The GI50 (EKVX NSCLC) was 1.02 µM, the TGI (EKVX NSCLC) was 6.88 µM and the GI50 (OVCAR-5 ovarian) was 2.26 µM. For the same compound, the TGI (OVCAR-5 ovarian) was 5.32 µM, the GI50 (HT29 colon) was 2.03 µM and the TGI (HT29 colon) was 5.54 µM. For the same compound, the GI50 (SNB-19 CNS) was 0.87 µM, the TGI (SNB-19 CNS) was > 100 µM and the GI50 (SW-620 colon) was 1.19 µM. For the same compound, the TGI (SW-620 colon) was 3.28 µM, the GI50 (RPMI-8226 leukemia) was 0.948 µM and the TGI (RPMI-8226 leukemia) was 93.4 µM. The GI50 (T-47D breast) was 1.49 µM, the TGI (T-47D breast) was 7.31 µM and the GI50 (UACC-257 melanoma) was 1.55 µM. It also gave a TGI (UACC-257 melanoma) of 4.29 µM, a GI50 (RXF 393 renal) of 0.757 µM and a TGI (RXF 393 renal) of 2.27 µM. For the same compound, the GI50 (U251 CNS) was 2.35 µM, the TGI (U251 CNS) was > 100 µM and the GI50 (CCRF-CEM leukemia) was 2.79 µM. For the same compound, the TGI (CCRF-CEM leukemia) was > 100 µM, the GI50 (A549 NSCLC) was 1.43 µM and the TGI (A549 NSCLC) was 5.83 µM. For the same compound, the GI50 (SK-MEL-2 melanoma) was 0.95 µM, the TGI (SK-MEL-2 melanoma) was 3.53 µM and the GI50 (786-0 renal) was 0.781 µM. For the same compound, the TGI (786-0 renal) was 6.95 µM, the GI50 (NCI-H23 lung) was 1.87 µM and the TGI (NCI-H23 lung) was 7.86 µM. For the same compound, the GI50 (CAKI-1 renal) was 1.03 µM, the TGI (CAKI-1 renal) was 2.63 µM and the GI50 (SK-MEL-5 melanoma) was 0.581 µM. The TGI (SK-MEL-5 melanoma) was 1.84 µM, the GI50 (NCI-H226 lung) was 0.518 µM and the TGI (NCI-H226 lung) was 2.09 µM.
